The values below come from PMC4457528, “Identification of Novel Small Molecule Inhibitors of Oncogenic RET Kinase” (PLoS ONE, 2015).

The structures appear in SMILES notation. Where two headings read alike, the source gives them in different places.

What all share (assay): KinomeScan kinase panel, single concentration 10 µM
Format in all cases: binding

The target of assay [1] is T1, KinomeScan kinase panel (Homo sapiens, UniProt P00533, L858R/T790M).
T1 construct: purchased DiscoveRx (KinomeScan)
The settings on record: EGFR(L858R.T790M), 10 µM.

The target of assay [2] is T2, KinomeScan kinase panel (Homo sapiens, UniProt P21860).
T2 construct: purchased DiscoveRx (KinomeScan)
The settings on record: ERBB3, 10 µM; read-out: score (%).

Assay [3] concerns the target T3, KinomeScan kinase panel (Homo sapiens, UniProt P42336, E542K).
T3 construct: purchased DiscoveRx (KinomeScan)
The settings on record: PIK3CA(E542K), 10 µM; read-out: score (%).

Assay [4] has as its target T4, KinomeScan kinase panel (Homo sapiens, UniProt Q15208).
T4 construct: purchased DiscoveRx (KinomeScan)
The settings on record: NDR1, 10 µM; read-out: score (%).

Assay [5] concerns the target T5, KinomeScan kinase panel (Homo sapiens, UniProt O75460).
T5 construct: purchased DiscoveRx (KinomeScan)
The settings on record: ERN1, 10 µM; read-out: score (%).

For assay [6], the target named is T6, KinomeScan kinase panel (Homo sapiens, UniProt Q15835).
T6 construct: purchased DiscoveRx (KinomeScan)
The settings on record: GRK1, 10 µM; read-out: score (%).

For assay [7], the target named is T7, KinomeScan kinase panel (Homo sapiens, UniProt P42336, M1043I).
T7 construct: purchased DiscoveRx (KinomeScan)
The settings on record: PIK3CA(M1043I), 10 µM; read-out: score (%).

For assay [8], the target named is T8, KinomeScan kinase panel (Homo sapiens, UniProt Q8IVW4).
T8 construct: purchased DiscoveRx (KinomeScan)
T8 sequence (Q8IVW4 whole entry): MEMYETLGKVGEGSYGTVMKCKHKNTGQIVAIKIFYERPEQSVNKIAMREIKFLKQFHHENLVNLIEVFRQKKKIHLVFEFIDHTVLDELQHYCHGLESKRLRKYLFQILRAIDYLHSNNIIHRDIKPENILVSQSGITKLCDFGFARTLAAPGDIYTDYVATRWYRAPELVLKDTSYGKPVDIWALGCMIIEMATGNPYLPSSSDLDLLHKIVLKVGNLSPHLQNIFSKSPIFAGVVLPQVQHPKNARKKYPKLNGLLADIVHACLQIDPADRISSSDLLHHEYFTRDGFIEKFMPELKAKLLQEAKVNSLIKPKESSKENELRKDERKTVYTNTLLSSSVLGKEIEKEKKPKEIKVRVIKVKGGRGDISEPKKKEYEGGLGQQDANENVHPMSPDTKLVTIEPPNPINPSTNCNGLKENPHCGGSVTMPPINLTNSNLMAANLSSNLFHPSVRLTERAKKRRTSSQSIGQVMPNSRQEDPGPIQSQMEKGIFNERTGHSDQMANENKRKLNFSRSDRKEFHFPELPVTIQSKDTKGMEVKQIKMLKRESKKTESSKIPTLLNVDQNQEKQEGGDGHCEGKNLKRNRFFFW
The settings on record: CDKL3, 10 µM; read-out: score (%).

Assay [9] has as its target T9, KinomeScan kinase panel (Homo sapiens, UniProt Q6ZN16).
T9 construct: purchased DiscoveRx (KinomeScan)
The settings on record: MAP3K15, 10 µM; read-out: score (%).

Assay [10] has as its target T10, KinomeScan kinase panel (Homo sapiens, UniProt P08581, M1250T).
T10 construct: purchased DiscoveRx (KinomeScan)
The settings on record: MET(M1250T), 10 µM.

Assay [11] addresses T11, KinomeScan kinase panel (Homo sapiens, UniProt Q9H422).
T11 construct: purchased DiscoveRx (KinomeScan)
The settings on record: HIPK3, 10 µM; read-out: score (%).

For assay [12], the target named is T12, KinomeScan kinase panel (Homo sapiens, UniProt Q8NE63).
T12 construct: purchased DiscoveRx (KinomeScan)
The settings on record: HIPK4, 10 µM; read-out: score (%).

In assay [13] the target is T13, KinomeScan kinase panel (Homo sapiens, UniProt Q8IY84).
T13 construct: purchased DiscoveRx (KinomeScan)
The settings on record: NIM1, 10 µM; read-out: score (%).

Assay [14] has as its target T14, KinomeScan kinase panel (Homo sapiens, UniProt P42336, H1047Y).
T14 construct: purchased DiscoveRx (KinomeScan)
The settings on record: PIK3CA(H1047Y), 10 µM; read-out: score (%).

Assay [15] has as its target T15, KinomeScan kinase panel (Homo sapiens, UniProt P42336, Q546K).
T15 construct: purchased DiscoveRx (KinomeScan)
The settings on record: PIK3CA(Q546K), 10 µM; read-out: score (%).

Assay [16] has as its target T16, KinomeScan kinase panel (Homo sapiens, UniProt Q9UPZ9).
T16 construct: purchased DiscoveRx (KinomeScan)
The settings on record: ICK, 10 µM; read-out: score (%).

Assay [17] addresses T17, KinomeScan kinase panel (Homo sapiens, UniProt O75747).
T17 construct: purchased DiscoveRx (KinomeScan)
The settings on record: PIK3C2G, 10 µM; read-out: score (%).

Assay [18] addresses T18, KinomeScan kinase panel (Homo sapiens, UniProt Q13627).
T18 construct: purchased DiscoveRx (KinomeScan)
The settings on record: DYRK1A, 10 µM; read-out: score (%).

Assay [19] deals with T19, KinomeScan kinase panel (Homo sapiens, UniProt Q9H2X6).
T19 construct: purchased DiscoveRx (KinomeScan)
The settings on record: HIPK2, 10 µM; read-out: score (%).

Assay [20] addresses T20, KinomeScan kinase panel (Homo sapiens, UniProt Q13464).
T20 construct: purchased DiscoveRx (KinomeScan)
The settings on record: read-out: score (%).

Assay [21] deals with T21, KinomeScan kinase panel (Homo sapiens, UniProt P57058).
T21 construct: purchased DiscoveRx (KinomeScan)
The settings on record: HUNK, 10 µM; read-out: score (%).

Assay [22] deals with T22, KinomeScan kinase panel (Homo sapiens, UniProt Q9Y2U5).
T22 construct: purchased DiscoveRx (KinomeScan)
The settings on record: MAP3K2, 10 µM; read-out: score (%).

In assay [23] the target is T23, KinomeScan kinase panel (Homo sapiens, UniProt O76039).
T23 construct: purchased DiscoveRx (KinomeScan)
The settings on record: CDKL5, 10 µM; read-out: score (%).

The target of assay [24] is T24, KinomeScan kinase panel (Homo sapiens, UniProt P10721, L576P).
T24 construct: purchased DiscoveRx (KinomeScan)
The settings on record: KIT(L576P), 10 µM; read-out: score (%).

In assay [25] the target is T25, KinomeScan kinase panel (Homo sapiens, UniProt P08581, Y1235D).
T25 construct: purchased DiscoveRx (KinomeScan)
The settings on record: MET(Y1235D), 10 µM.

In assay [26] the target is T26, KinomeScan kinase panel (Homo sapiens, UniProt Q9NYY3).
T26 construct: purchased DiscoveRx (KinomeScan)

Assay [27] has as its target T27, KinomeScan kinase panel (Homo sapiens, UniProt O15197).
T27 construct: purchased DiscoveRx (KinomeScan)
The settings on record: EPHB6, 10 µM; read-out: score (%).

The target in assay [28] is T28, KinomeScan kinase panel (Homo sapiens, UniProt Q56UN5).
T28 construct: purchased DiscoveRx (KinomeScan)
T28 sequence (Q56UN5 whole entry): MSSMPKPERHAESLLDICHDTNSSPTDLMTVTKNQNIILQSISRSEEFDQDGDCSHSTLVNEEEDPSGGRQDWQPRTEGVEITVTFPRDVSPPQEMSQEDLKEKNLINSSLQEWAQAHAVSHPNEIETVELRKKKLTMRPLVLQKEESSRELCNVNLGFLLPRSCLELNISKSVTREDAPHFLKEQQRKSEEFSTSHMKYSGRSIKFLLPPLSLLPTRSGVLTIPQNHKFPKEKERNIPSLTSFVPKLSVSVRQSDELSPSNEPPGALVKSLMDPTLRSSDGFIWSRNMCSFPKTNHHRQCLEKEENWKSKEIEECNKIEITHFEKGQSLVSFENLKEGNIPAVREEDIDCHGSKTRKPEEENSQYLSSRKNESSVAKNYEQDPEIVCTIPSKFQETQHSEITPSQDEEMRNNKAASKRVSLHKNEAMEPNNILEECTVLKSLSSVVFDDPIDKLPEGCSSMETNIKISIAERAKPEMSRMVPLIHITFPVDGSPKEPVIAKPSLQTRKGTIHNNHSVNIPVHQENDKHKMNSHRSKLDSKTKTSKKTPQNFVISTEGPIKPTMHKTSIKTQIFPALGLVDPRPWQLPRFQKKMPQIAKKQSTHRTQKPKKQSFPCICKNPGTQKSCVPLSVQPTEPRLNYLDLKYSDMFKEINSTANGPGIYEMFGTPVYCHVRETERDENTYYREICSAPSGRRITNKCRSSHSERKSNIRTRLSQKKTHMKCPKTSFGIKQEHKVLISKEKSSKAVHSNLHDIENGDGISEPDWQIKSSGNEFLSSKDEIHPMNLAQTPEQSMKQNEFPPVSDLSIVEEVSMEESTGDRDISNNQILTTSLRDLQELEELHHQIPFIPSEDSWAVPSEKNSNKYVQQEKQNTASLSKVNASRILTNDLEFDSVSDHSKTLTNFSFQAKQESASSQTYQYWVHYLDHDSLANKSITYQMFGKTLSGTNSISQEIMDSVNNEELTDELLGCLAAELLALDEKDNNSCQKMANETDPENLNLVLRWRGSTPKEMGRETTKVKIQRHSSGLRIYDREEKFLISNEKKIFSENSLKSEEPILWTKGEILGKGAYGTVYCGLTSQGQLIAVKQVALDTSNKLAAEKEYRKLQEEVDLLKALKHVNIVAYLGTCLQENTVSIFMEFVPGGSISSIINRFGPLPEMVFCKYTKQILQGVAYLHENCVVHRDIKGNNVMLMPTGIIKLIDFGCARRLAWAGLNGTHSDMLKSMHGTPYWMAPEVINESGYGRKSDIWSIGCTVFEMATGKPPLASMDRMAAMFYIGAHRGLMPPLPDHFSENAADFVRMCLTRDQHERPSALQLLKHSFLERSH
The settings on record: kinase YSK4; 10 µM; read-out: score (%).

In assay [29] the target is T29, KinomeScan kinase panel (Homo sapiens, UniProt Q9Y2K2).
T29 construct: purchased DiscoveRx (KinomeScan)
The settings on record: 10 µM.

In assay [30] the target is T30, KinomeScan kinase panel (Homo sapiens, UniProt O43283).
T30 construct: purchased DiscoveRx (KinomeScan)
The settings on record: LZK, 10 µM.

For assay [31], the target named is T31, KinomeScan kinase panel (Homo sapiens, UniProt O95382).
T31 construct: purchased DiscoveRx (KinomeScan)
The settings on record: ASK2, 10 µM; read-out: score (%).

The target of assay [32] is T32, KinomeScan kinase panel (Homo sapiens, UniProt Q52WX2).
T32 construct: purchased DiscoveRx (KinomeScan)
The settings on record: kinase SBK1; 10 µM; read-out: score (%).

Assay [33] deals with T33, KinomeScan kinase panel (Homo sapiens, UniProt Q92630).
T33 construct: purchased DiscoveRx (KinomeScan)
T33 sequence (Q92630 whole entry): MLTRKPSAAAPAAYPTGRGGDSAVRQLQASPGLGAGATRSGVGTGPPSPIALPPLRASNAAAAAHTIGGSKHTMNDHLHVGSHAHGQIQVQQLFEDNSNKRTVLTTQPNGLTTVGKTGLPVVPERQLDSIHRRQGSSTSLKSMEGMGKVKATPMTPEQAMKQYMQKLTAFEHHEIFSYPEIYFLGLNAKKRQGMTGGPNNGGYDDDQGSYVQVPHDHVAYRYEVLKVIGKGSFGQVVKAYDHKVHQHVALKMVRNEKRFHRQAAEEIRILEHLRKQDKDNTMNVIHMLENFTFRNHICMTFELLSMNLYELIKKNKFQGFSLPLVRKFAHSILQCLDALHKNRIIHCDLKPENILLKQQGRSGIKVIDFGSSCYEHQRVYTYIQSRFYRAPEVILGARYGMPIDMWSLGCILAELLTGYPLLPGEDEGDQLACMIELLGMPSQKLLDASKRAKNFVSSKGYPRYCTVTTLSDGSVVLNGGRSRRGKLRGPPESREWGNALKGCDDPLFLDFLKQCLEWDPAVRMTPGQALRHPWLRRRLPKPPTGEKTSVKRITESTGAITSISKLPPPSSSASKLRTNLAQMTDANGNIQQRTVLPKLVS
The settings on record: DYRK2, 10 µM; read-out: score (%).

The target of assay [34] is T34, KinomeScan kinase panel (Homo sapiens, UniProt P53779).
T34 construct: purchased DiscoveRx (KinomeScan)
The settings on record: JNK3, 10 µM.

T27 sequence (O15197 32-1021): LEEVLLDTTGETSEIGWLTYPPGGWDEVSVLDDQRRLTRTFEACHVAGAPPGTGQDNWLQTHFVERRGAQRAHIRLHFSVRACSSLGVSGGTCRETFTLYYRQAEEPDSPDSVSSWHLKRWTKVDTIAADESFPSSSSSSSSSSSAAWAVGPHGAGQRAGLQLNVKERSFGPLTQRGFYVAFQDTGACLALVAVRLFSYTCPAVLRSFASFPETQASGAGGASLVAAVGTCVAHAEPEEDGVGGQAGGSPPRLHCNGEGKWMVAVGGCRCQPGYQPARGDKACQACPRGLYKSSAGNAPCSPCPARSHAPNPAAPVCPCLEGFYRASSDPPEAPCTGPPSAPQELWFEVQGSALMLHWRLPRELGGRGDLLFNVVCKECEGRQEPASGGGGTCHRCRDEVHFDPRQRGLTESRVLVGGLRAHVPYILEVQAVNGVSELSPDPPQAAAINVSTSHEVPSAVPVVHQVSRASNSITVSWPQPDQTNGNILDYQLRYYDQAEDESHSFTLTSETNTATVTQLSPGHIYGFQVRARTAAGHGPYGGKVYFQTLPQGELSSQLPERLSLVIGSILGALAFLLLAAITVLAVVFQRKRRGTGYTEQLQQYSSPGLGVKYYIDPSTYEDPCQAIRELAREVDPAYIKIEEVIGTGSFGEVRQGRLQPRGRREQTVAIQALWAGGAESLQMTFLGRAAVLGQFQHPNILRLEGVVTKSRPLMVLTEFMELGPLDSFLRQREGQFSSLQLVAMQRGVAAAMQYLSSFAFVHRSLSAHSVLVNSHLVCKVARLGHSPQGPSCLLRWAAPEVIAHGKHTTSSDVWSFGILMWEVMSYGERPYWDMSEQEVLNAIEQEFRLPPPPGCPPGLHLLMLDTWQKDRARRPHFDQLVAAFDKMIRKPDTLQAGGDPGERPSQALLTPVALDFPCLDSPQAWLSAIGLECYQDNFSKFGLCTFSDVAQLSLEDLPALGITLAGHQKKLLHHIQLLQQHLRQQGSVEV
T20 sequence (Q13464 whole entry): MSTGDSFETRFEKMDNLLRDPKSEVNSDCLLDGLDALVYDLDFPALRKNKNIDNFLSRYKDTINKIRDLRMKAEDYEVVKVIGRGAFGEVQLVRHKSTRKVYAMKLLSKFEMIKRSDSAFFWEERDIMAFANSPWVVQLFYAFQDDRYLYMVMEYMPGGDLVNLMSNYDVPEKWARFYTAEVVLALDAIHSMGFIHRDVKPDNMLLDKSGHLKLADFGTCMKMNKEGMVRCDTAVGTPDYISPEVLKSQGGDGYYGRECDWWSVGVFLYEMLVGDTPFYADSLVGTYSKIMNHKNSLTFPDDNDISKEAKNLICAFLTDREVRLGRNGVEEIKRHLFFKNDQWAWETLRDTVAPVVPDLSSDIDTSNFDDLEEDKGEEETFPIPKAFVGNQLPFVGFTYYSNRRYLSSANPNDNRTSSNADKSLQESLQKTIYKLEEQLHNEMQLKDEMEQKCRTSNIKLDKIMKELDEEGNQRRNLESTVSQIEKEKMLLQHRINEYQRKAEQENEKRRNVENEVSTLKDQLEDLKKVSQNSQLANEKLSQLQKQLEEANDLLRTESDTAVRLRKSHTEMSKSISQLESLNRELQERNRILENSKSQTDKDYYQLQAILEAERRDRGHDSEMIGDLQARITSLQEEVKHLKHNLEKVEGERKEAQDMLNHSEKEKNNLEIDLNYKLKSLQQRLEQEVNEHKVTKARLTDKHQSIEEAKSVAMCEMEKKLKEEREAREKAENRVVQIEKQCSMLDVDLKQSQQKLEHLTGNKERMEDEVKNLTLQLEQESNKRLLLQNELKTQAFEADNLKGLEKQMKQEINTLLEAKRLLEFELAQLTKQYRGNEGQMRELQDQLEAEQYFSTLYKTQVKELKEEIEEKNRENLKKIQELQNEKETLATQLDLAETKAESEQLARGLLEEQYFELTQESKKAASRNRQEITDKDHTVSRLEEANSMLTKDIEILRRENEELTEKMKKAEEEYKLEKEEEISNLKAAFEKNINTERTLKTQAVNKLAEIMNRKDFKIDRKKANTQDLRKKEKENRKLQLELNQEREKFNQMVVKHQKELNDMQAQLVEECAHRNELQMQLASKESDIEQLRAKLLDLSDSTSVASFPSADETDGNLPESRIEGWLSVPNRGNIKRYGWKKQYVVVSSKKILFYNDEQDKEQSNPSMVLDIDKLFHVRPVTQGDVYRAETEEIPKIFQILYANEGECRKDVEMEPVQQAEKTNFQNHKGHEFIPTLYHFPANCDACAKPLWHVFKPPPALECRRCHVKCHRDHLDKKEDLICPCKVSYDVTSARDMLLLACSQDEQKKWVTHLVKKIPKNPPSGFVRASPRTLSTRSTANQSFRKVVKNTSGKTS

`CCN1CCN(Cc2ccc(NC(=O)c3ccc(C)c(NC(=O)c4cncc(-c5cccs5)c4)c3)cc2C(F)(F)F)CC1` [ALW-II-41-27]: the “score (%)” value on KinomeScan kinase panel [1] is given as “nb (Hits values higher than 30% were considered negative (no binding: nb))”; at KinomeScan kinase panel [10] it was “nb (Hits values higher than 30% were considered negative (no binding: nb))”; on KinomeScan kinase panel [25] it was “nb (Hits values higher than 30% were considered negative (no binding: nb))”; at KinomeScan kinase panel [26] (PLK2, 10 µM) it was “nb (Hits values higher than 30% were considered negative (no binding: nb))”; at KinomeScan kinase panel [29] (QSK) it was “nb (Hits values higher than 30% were considered negative (no binding: nb))”; on KinomeScan kinase panel [30], 15%. The remaining binding at 10 µM was > 30% at KinomeScan kinase panel [2]; > 30% on KinomeScan kinase panel [3]; > 30% on KinomeScan kinase panel [4]; 1.4% on KinomeScan kinase panel [5]; > 30% at KinomeScan kinase panel [6]; > 30% at KinomeScan kinase panel [7]. Moreover, the remaining binding at 10 µM on KinomeScan kinase panel [8] was 9.8%; on KinomeScan kinase panel [9] it was > 30%; at KinomeScan kinase panel [11] it was > 30%; at KinomeScan kinase panel [12], 25%; at KinomeScan kinase panel [13] it was > 30%; on KinomeScan kinase panel [14], > 30%. Moreover, the remaining binding at 10 µM is > 30% on KinomeScan kinase panel [15]; > 30% on KinomeScan kinase panel [16]; > 30% at KinomeScan kinase panel [17]; 0.15% at KinomeScan kinase panel [18]; > 30% on KinomeScan kinase panel [19]; 0% on KinomeScan kinase panel [20] (ROCK1, 10 µM). In addition, the remaining binding at 10 µM was > 30% on KinomeScan kinase panel [21]; 3.8% on KinomeScan kinase panel [22]; > 30% at KinomeScan kinase panel [23]; 0% on KinomeScan kinase panel [24]; 1.2% on KinomeScan kinase panel [27]; 21% on KinomeScan kinase panel [28]. Moreover, the results for the remaining binding at 10 µM at KinomeScan kinase panel [31], on KinomeScan kinase panel [32] and at KinomeScan kinase panel [33] were > 30%, > 30% and 18%, respectively.

Turning to `CCN1CCN(Cc2ccc(NC(=O)c3ccc(C)c(/C=C/c4cnc5[nH]ccc5c4Cl)c3)cc2C(F)(F)F)CC1` [HG-6-63-01, (E)-3-(2-(4-chloro-1H-pyrrolo[2,3-b]pyridin-5-yl)vinyl)-N-(4-((4-ethylpiperazin-1-yl)methyl)-3-(trifluoromethyl)phenyl)-4-methylbenzamide], the “score (%)” value at KinomeScan kinase panel [34] is on record as “nb (Hits values higher than 30% were considered negative (no binding: nb))”.

Consider `CCN1CCN(Cc2ccc(NC(=O)c3ccc(C)c(C#Cc4cccnc4)c3)cc2C(F)(F)F)CC1` [XMD15-44], for which the “score (%)” value on KinomeScan kinase panel [1] is “nb (Hits values higher than 30% were considered negative (no binding: nb))”; at KinomeScan kinase panel [34], 0.95%; at KinomeScan kinase panel [10], “nb (Hits values higher than 30% were considered negative (no binding: nb))”; at KinomeScan kinase panel [25] it was “nb (Hits values higher than 30% were considered negative (no binding: nb))”; on KinomeScan kinase panel [26] (kinase PLK2, 10 µM), 100%; at KinomeScan kinase panel [29] (kinase QSK) it was 70%. Also, the “score (%)” value at KinomeScan kinase panel [30] is given as 7.4%. The remaining binding at 10 µM was > 30% at KinomeScan kinase panel [2]; 100% on KinomeScan kinase panel [3]; 4% on KinomeScan kinase panel [4]; > 30% at KinomeScan kinase panel [5]; > 30% on KinomeScan kinase panel [6]; 83% at KinomeScan kinase panel [7]. In addition, the remaining binding at 10 µM on KinomeScan kinase panel [8] is 0.65%; at KinomeScan kinase panel [9], > 30%; at KinomeScan kinase panel [11], 18%; on KinomeScan kinase panel [12], 2.2%; on KinomeScan kinase panel [13], 97%; on KinomeScan kinase panel [14] it was 81%. Besides, the remaining binding at 10 µM on KinomeScan kinase panel [15] was 100%; at KinomeScan kinase panel [16], > 30%; on KinomeScan kinase panel [17], 100%; at KinomeScan kinase panel [18] it was > 30%; at KinomeScan kinase panel [19], > 30%; at KinomeScan kinase panel [20] (kinase ROCK1, 10 µM) it was 43%. In addition, the remaining binding at 10 µM is > 30% on KinomeScan kinase panel [21]; 0.15% at KinomeScan kinase panel [22]; 12% at KinomeScan kinase panel [23]; 0% on KinomeScan kinase panel [24]; 8.8% at KinomeScan kinase panel [27]; 0.1% at KinomeScan kinase panel [28]. Moreover, the remaining binding at 10 µM at KinomeScan kinase panel [31] was 12%; on KinomeScan kinase panel [32], 88%; on KinomeScan kinase panel [33] it was > 30%.
